The source made the active and inactive calls. No rule for the calls is given here.

The target in this assay is glucose-6-phosphate dehydrogenase-6-phosphogluconolactonase (Plasmodium falciparum 3D7). Description: PfG6PD enzyme inhibitors, direct NADPH readout, dose response, orthogonal assay, biochemical, end-point NADPH detection (AID 540252). Particulars: purified PfG6PD enzyme.
Consider `Cn1c(=O)[nH]c(=O)c2c1nc(SCCN1CCCCC1)n2CCCc1ccccc1`, for which the IC50 was > 80 µM (inactive).

For the compound `O=c1c2ccccc2sn1-c1ccc(S(=O)(=O)N2CCCC2)cc1`, the IC50 was 36.6 µM.

As to `COc1cc(NCCCn2cnc(C(=O)Nc3ccc(C)c(C)c3)n2)cc(OC)c1OC`, the IC50 is > 80 µM (inactive).

On to `c1cncc(CNc2ccc3c(c2)OCO3)c1`, for which the IC50 is > 80 µM (inactive).

Take `O=c1ccsn1Cc1ccccc1`: the IC50 was 55.8 µM.

In the case of `Cc1cc(C)nc(/N=C(\N)Nc2ccccc2-c2ccccc2)n1`, the IC50 is > 80 µM (inactive).

As to `CC(C)(C)c1ccc(O)c(O)c1`, the IC50 was 54.8 µM.

On to `Cc1cc(C)c(S(=O)(=O)Nc2cc(SCC(=O)O)c(O)c3ccccc23)cc1C`, for which the IC50 was > 80 µM (inactive).

Turning to `O=C(Nc1nnc(S(=O)(=O)N2CCCCC2)s1)c1ccc(Cl)cc1`, the IC50 is > 80 µM (inactive).

`N#Cc1ccc(Oc2cccc3cccnc23)c([N+](=O)[O-])c1`: the IC50 is > 80 µM (inactive).

As for `CN1CCN(C(=S)c2ccc(Br)cc2)CC1`, the IC50 was > 80 µM (inactive).

For the compound `CCn1c(N)c(C(=O)NC)sc1=S`, the IC50 was > 80 µM (inactive).

For `O=c1c2ccccc2sn1-c1nccs1`, the IC50 was 26.2 µM.

With `O=C(Cn1sc2ccccc2c1=O)Nc1ccc(Cl)cc1`, the IC50 was 15.2 µM.

Regarding `Cc1noc(C(=O)Nc2sc3c(c2C#N)CCC3)c1Cl`, the IC50 is > 80 µM (inactive).

With `NCCNc1ccc(C(=O)N2c3ccccc3Sc3ccccc32)cc1[N+](=O)[O-]`, the IC50 was 13.2 µM.

Regarding `COc1cc(N)c2ncccc2c1SC`, the IC50 is > 80 µM (inactive).

Turning to `c1ccc(-c2nc(N3CCOCC3)s[n+]2-c2ccccc2)cc1`, the IC50 was > 80 µM (inactive).

In the case of `COc1cccc(C(=O)Nc2nnc(S(=O)(=O)N(C)Cc3ccccc3)s2)c1`, the IC50 was > 80 µM (inactive).

As to `O=C1C=CC(=O)N1c1ccc2c(c1)C(NC(=O)C(F)(F)F)c1ccccc1-2` (configuration not stated), the IC50 is 20 µM.

`CC1CN(c2ccccc2)NC1=O` (configuration not stated): the IC50 is > 80 µM (inactive).

For the compound `COc1c2ccoc2c(OCC=C(C)C)c2oc(=O)ccc12`, the IC50 is > 80 µM (inactive).

For `COc1cccc2nc3cc(C)c(C)cc3nc12`, the IC50 is > 80 µM (inactive).

`CC(=O)Nc1ccc(S(=O)(=O)NNc2cccc(C)c2)cc1`: the IC50 is > 80 µM (inactive).

Regarding `O=C1CCC[C@@H]2[C@@H](Cc3ccccc3)[C@H](N3CCN(c4ccccc4)CC3)C[C@@H]3CCN1[C@@H]32`, the IC50 was > 80 µM (inactive).

On to `CCOc1ccc(S(=O)(=O)Nc2cc(SCC(=O)O)c(O)c3ccccc23)cc1`, for which the IC50 is > 80 µM (inactive).

Regarding `CCC(C)(C)c1nnc(NC(=O)C2CCN(C(=O)c3ccco3)CC2)s1`, the IC50 is > 80 µM (inactive).

Take `O=C(Nc1ccc([N+](=O)[O-])cc1Cl)c1cc(Cl)ccc1O`: the IC50 was > 80 µM (inactive).

As for `Cc1nnc(Sc2cc(NCCO)c([N+](=O)[O-])c3nonc23)s1`, the 50% inhibitory concentration (IC50) is 53.1 µM.

As to `Cc1ccc(S(=O)c2ccc([N+](=O)[O-])c3nonc23)cc1` (configuration not stated), the IC50 was 60 µM.

For `CC(=O)Nc1cc2c(cc1[N+](=O)[O-])-c1ccccc1C2O` (configuration not stated), the 50% inhibitory concentration (IC50) is 74.5 µM.

As for `O=C(CN1CCN(c2ccc(O)cc2)CC1)Nc1cc(S(=O)(=O)N2CCOCC2)ccc1Cl`, the IC50 is > 80 µM (inactive).

With `C[C@H](CO)N1C[C@H](C)[C@@H](CN(C)C(=O)Nc2ccc(C(F)(F)F)cc2)Oc2c(cccc2N(C)C)C1=O`, the IC50 was > 80 µM (inactive).

As to `CCc1c(C(=O)Nc2ccccc2)c(C)[nH]c(=S)c1C#N`, the IC50 was > 80 µM (inactive).

With `CN1CCc2cccc3c2[C@@H]1Cc1ccc(O)c(O)c1-3`, the IC50 was > 80 µM (inactive).

`Cc1ccc(/C=C/C(=O)N2CCN(S(=O)(=O)c3ccc(C)c(C)c3)CC2)o1`: the IC50 is > 80 µM (inactive).

Regarding `C=CCN1C=C2C(=O)C(C)(OC(=O)CCC(=O)OC)C(=O)C(Br)=C2C=C1c1ccc(OC)cc1` (configuration not stated), the IC50 was > 80 µM (inactive).

For `O=C(O)C(Cc1ccccc1)N1C(=O)C=CC1=O` (configuration not stated), the IC50 is 51 µM.

Turning to `Cc1cccc(C(=O)Nc2nnc(S(=O)(=O)N3CCCCCC3)s2)c1`, the IC50 is > 80 µM (inactive).

Turning to `O=[N+]([O-])c1ccc2c(c1)-c1ccccc1C2O` (configuration not stated), the IC50 was 23.8 µM.

`COc1cc(CNc2ccc(N3CCCC3)cc2)cc(Cl)c1OC`: the IC50 is > 80 µM (inactive).

Turning to `C/C(Cn1nnc([N+](=O)[O-])n1)=N\NC(=O)c1ccccc1O`, the IC50 is > 80 µM (inactive).

For the compound `CN(C)c1ccc(C=c2c3cc([N+](=O)[O-])ccc3n3c2cc(-c2ccccc2)[n+]3C)cc1`, the IC50 is 33.2 µM.

Take `CCN(CC)C(=S)SSC(=S)N(CC)CC`: the IC50 is > 80 µM (inactive).

Take `COc1cc(NCCCn2ccc(NC(=O)OCc3ccccc3)nc2=O)cc(OC)c1OC`: the IC50 was > 80 µM (inactive).

As to `CCn1c(=O)n(CC)c2cc(N3CCCC3)c(NC(=O)c3cccc(C)c3)cc21`, the IC50 was > 80 µM (inactive).

Turning to `COc1ccccc1N1C(=O)C=C(Sc2nc(C)cc(C)n2)C1=O`, the IC50 is > 80 µM (inactive).

As for `COCc1cc(=O)n2[nH]c(C(C)(C)C)cc2n1`, the IC50 is > 80 µM (inactive).

Consider `CNS(=O)(=O)c1ccc(-c2ccc(C=C3C(=O)NC(=O)NC3=O)o2)cc1`, for which the IC50 was > 80 µM (inactive).

Regarding `Cc1ccccc1OCC(=O)NCC(=O)OCC(=O)c1ccc([N+](=O)[O-])cc1`, the IC50 is 50.1 µM.

For the compound `COc1ccc(Cl)cc1NC(=O)c1cccc([N+](=O)[O-])c1O`, the IC50 is > 80 µM (inactive).

`CC1(C)Nc2ccc(O)cc2-c2c1ssc2=S`: the IC50 was > 80 µM (inactive).

Regarding `COc1cc(NC(C)CCc2ccccc2)cc(OC)c1OC` (configuration not stated), the IC50 is > 80 µM (inactive).

Consider `C[C@]12CC[C@@H]3c4cc(O)c(O)cc4CC[C@H]3[C@@H]1CC[C@@H]2O`, for which the IC50 is 38 µM.

Consider `CC1N(C)c2cccc3cccc(c23)N1C`, for which the IC50 is > 80 µM (inactive).

For `Cc1ccc(-n2c(N)c(C(=O)N3CCN(C)CC3)sc2=S)cc1`, the IC50 was 55.2 µM.

Take `Cc1cc(=O)[nH]c(N/N=C/c2c(C)nn(-c3ccccc3)c2Cl)n1`: the 50% inhibitory concentration (IC50) is 19.9 µM.

Consider `Cc1ccc(-c2c(C(=O)N/N=C/c3ccsc3)nnn2-c2nonc2N)cc1`, for which the IC50 is > 80 µM (inactive).

Turning to `O=C(N/N=C/c1cccc([N+](=O)[O-])c1)C(=O)N1CCCCCC1`, the IC50 is > 80 µM (inactive).

Consider `[O-]/[N+](=C/c1cccnc1)c1ccc(Br)cc1`, for which the IC50 is > 80 µM (inactive).

Turning to `O=C(Nc1nnc(S(=O)(=O)N2CCOCC2)s1)c1ccc(F)cc1`, the IC50 was > 80 µM (inactive).

As for `CC(C)(C)c1ccc(C(=O)Nc2sc3c(c2C(=O)O)CCC3)cc1`, the IC50 is > 80 µM (inactive).

In the case of `CCOc1ccc(Cl)cc1/C=N/NC(N)=O`, the IC50 is > 80 µM (inactive).

Take `Cc1cc(C)c2c(=O)n(CC(=O)Nc3ccc(Cl)cc3)sc2n1`: the IC50 was > 80 µM (inactive).

Consider `COC(=O)CCC(=O)Nc1sc(Cc2ccccc2)c(C)c1C(N)=O`, for which the IC50 was > 80 µM (inactive).

For the compound `c1ccc(-c2cn3c(n2)CCc2ccc4cccnc4c2-3)cc1`, the IC50 is > 80 µM (inactive).

In the case of `CN(C)c1ncc(C2=C(Cl)C(=O)C(N3CCCC3)=C(Cl)C2=O)s1`, the IC50 was > 80 µM (inactive).

Regarding `CC1=CC(C)(C)Nc2ccc(OC(=O)CN3C(=O)CCC3=O)cc21`, the IC50 was > 80 µM (inactive).

Regarding `COc1cc(-c2nnc3n2N=C(c2ccccc2)CS3)cc(OC)c1OC`, the IC50 is > 80 µM (inactive).

As for `O=C(CNC(=O)c1ccc(Br)cc1)NCC(=O)OCC(=O)c1ccc([N+](=O)[O-])cc1`, the IC50 was > 80 µM (inactive).

As to `Cc1ccc2nc(SCC(=O)N/N=C/c3ccco3)cc(C)c2c1`, the IC50 was > 80 µM (inactive).

Take `CN1C(=O)CSc2ccc(NC(=O)N3CCc4ccccc43)cc21`: the IC50 was > 80 µM (inactive).

Turning to `Nc1[nH]c(=O)[nH]c(=O)c1N=Cc1ccccc1`, the IC50 was > 80 µM (inactive).

Take `Cc1ccc(NC2=C(NC(=O)c3ccccc3)C(=O)c3ccccc3C2=O)cc1Cl`: the IC50 was > 80 µM (inactive).

In the case of `COc1cc(CNc2ccc3[nH]c(=O)[nH]c3c2)ccc1OCc1ccccc1`, the IC50 was > 80 µM (inactive).

For `Cc1nnc(N/N=C\c2ccc(-c3cccc(C(=O)O)c3)o2)n1N`, the IC50 is > 80 µM (inactive).

With `Cc1ccccc1-n1c(-c2ccc3ccccc3n2)n[nH]c1=S`, the IC50 is > 80 µM (inactive).

As for `O=C1C(c2cc(=O)c3ccccc3[nH]2)=C(O)c2ccccc21`, the IC50 is > 80 µM (inactive).

In the case of `O=[N+]([O-])c1ccc(N/N=C/c2ccc(O)c(O)c2O)c(S(=O)(=O)N2CCOCC2)c1`, the IC50 is 47.5 µM.

Regarding `N#Cc1ccc(N=c2ssnc2Cl)cc1`, the IC50 is 49 µM.

For the compound `NNC(=O)CN1C(c2ccccc2Br)=Nc2ccc(Br)cc2C1c1ccccc1` (configuration not stated), the IC50 was > 80 µM (inactive).

For `Cc1nnc(SCC(=O)c2cc(C)n(-c3ccc4c(c3)OCO4)c2C)s1`, the IC50 was > 80 µM (inactive).

For `CCC(CO)[n+]1c(C)cc(/C=C2\Sc3ccccc3N2Cc2ccccc2)cc1C` (configuration not stated), the IC50 was > 80 µM (inactive).

With `Nc1cc(N)c(OCC(F)(F)F)cc1OCC(F)(F)F`, the IC50 was > 80 µM (inactive).

Turning to `CCn1c(SCc2nc3scc(-c4ccccc4)c3c(=O)[nH]2)nnc1-c1cccs1`, the IC50 was > 80 µM (inactive).

Regarding `c1ccc(SSc2ccccn2)nc1`, the IC50 was 60.8 µM.

For the compound `Nn1c(SCC(=O)Nc2cccnc2Cl)nnc1-c1ccccc1`, the IC50 is > 80 µM (inactive).

Take `Cn1cc(S(=O)(=O)CC(=O)N2CCc3ccccc32)c2ccccc21`: the IC50 was > 80 µM (inactive).

Turning to `Cc1nc2c(o1)C(=O)c1ccccc1C2=Nc1ccccc1`, the IC50 was > 80 µM (inactive).

For the compound `CCc1cc(-c2n[nH]c(C)c2-c2ccccc2Cl)c(O)cc1OC`, the IC50 was > 80 µM (inactive).

In the case of `CC(C)c1nnc(NC(=O)c2cccc(-n3cnnn3)c2)s1`, the IC50 is > 80 µM (inactive).

As for `Nc1c(O)cccc1C(=O)O`, the IC50 is > 80 µM (inactive).

By IC50 is commonly meant the midpoint of a concentration-inhibition curve.

Source of the values: PubChem BioAssay AID540252 (Sanford-Burnham Center for Chemical Genomics, 2011).
